Reference: US4264625A, “Pesticidal unsymmetrical bis-arylcarbamate sulfide compounds” (Union Carbide Corporation, priority 1978, dated 1981)

How the values were obtained:
Assay type in all cases: in vivo
Soybean = conditions: 2500 ppm spray, ten days, rating 1-5
Method: (§1) POST-EMERGENT HERBICIDAL TEST
(§2) Experiments were also conducted to determine the phytotoxicity of representative compositions with respect to healthy fresh plants. Solutions of the compounds were prepared as described above to provide a concentration of 2500 parts per million of the test compound. The test plants were sprayed in accordance with the procedure described above for the Mite Foliage Spray Test so as to deliver approximately 100 milliliters of test solution to the leaves of each plant tested. The sprayed plants and controls were set aside for approximately one hour to allow the solutions to dry and were then placed in the greenhouse. After ten days the plants were visually inspected to determine the extent of foliage injury. A rating of 1 indicates no perceptible injury; 5 indicates the plant was dead and ratings of 2, 3 and 4 indicate intermediate degrees of injury based upon the number and extent to which leaves were injured.

Corn = conditions: 2500 ppm spray, ten days, rating 1-5
Method: as §1, §2

Tomato = conditions: 2500 ppm spray, ten days, rating 1-5
Method: as §1, §2

Cotton = conditions: 2500 ppm spray, ten days, rating 1-5
Method: as §1, §2

Bean = conditions: 2500 ppm spray, ten days, rating 1-5
Method: as §1, §2

[1] = tested on: house flies (Musca domestica, L.); test: Fly Bait Test; set-up: key: A: excellent control; B: partial control; C: no control; conditions: 500 ppm in sugar-solution bait, 24 hours, mortality rating
Method: (§3) Suspensions of the test compounds were prepared by dissolving one gram of compound in 50 milliliters of acetone in which had been dissolved 0.1 gram (10 percent of the weight of compound) of an alkylphenoxy polyethoxyethanol surfactant, as an emulsifying or dispersing agent. The resulting solution was mixed into 150 milliliters of water to give roughly 200 milliliters of a suspension containing the compound in finely divided form. The thus-prepared stock suspension contained 0.5 percent by weight of compound. The test concentrations in parts per million by weight employed in the tests described hereinbelow were obtained by appropriate dilutions of the stock suspension with water. The test procedures were as follows:
Four to six day old adult house flies (Musca domestica, L.) reared according to the specifications of the Chemical Specialties Manufacturing Association (Blue Book, McNair-Dorland Co., N.Y. 1954; pages 243-244, 261) under controlled conditions of 80°±5° F. and 50±5 percent relative humidity, were the test insects. The flies were immobilized by anesthetizing with carbon dioxide and twenty five immobilized individuals, males and females, were transferred to a cage consisting of a standard food strainer about five inches in diameter which was inverted over a wrapping-paper-covered surface. The test compounds were formulated by diluting the stock suspension with a 10 percent (by weight) sugar solution to give a suspension containing 500 parts of test compound per million parts of final formulation, by weight. Ten milliliters of the test formulation were added to a souffle cup containing a one-inch square of an absorbent cotton pad. This bait cup was introduced and centered on the blotting paper under the food strainer prior to admitting the anesthetized flies. The caged flies were allowed to feed on the bait for twenty four hours, at a temperature of 80°±5° F. and the relative humidity of 50±5 percent.
(§4) In these tests the pesticidal activity of the compounds against aphid, mite, Southern Armyworm, Bean Beetle and house fly was rated as follows: […]

[2] = tested on: bean aphid (Aphis fabae Scop.); test: Bean Aphid Foliage Spray Test; set-up: key: A: excellent control; B: partial control; C: no control; conditions: 500 ppm foliage spray, 24 hours, mortality rating
Method: as §3
Bean Aphid Foliage Spray Test
Adults and nymphal stages of the bean aphid (Aphis fabae Scop.) reared on potted dwarf nasturtium plants at 65°-70° F. and 50-70 percent relative humidity, constituted the test insects. For testing purposes, the number of aphids per pot was standardized to 100-150 by trimming plants containing excess aphids.
The test compounds were formulated by diluting the stock suspension with water to give a suspension containing 500 parts of test compound per million parts of final formulation.
The potted plants (one pot per compound tested) infested with 100-150 aphids, were placed on a revolving turntable and sprayed with 100-110 milliliters of test compound formulation by use of a DeVilbiss spray gun set at 40 psig. air pressure. This application, which lasted 25 seconds, was sufficient to wet the plants to run-off. As a control, 100-110 milliliters of a water-acetone-emulsifier solution containing no test compound were also sprayed on infested plants. After spraying, the pots were placed on their sides on a sheet of white standard mimeograph paper which had been previously ruled to facilitate counting. Temperature and humidity in the test room during the 24 hour holding period were 65°-70° F. and 50-70 percent, respectively. Aphids which fell onto the paper and were unable to remain standing after being uprighted were considered dead. Aphids remaining on the plants were observed closely for movement and those which were unable to move the length of the body upon stimulation by prodding were considered dead. Percent mortality was recorded for various concentration levels.
as §4

[3] = tested on: southern armyworm (Prodenia eridania, (Cram.)); test: Southern Armyworm Leaf Spray Test; set-up: key: A: excellent control; B: partial control; C: no control; conditions: 500 ppm leaf spray, larvae, three days, mortality rating
Method: as §3
Southern Armyworm Leaf Spray Test
Larvae of the southern armyworm (Prodenia eridania, (Cram.)), reared on Tendergreen bean plants at a temperature of 80°±5° F. and a relative humidity of 50±5 percent, constituted the test insects.
The test compounds were formulated by diluting the stock suspension with water to give a suspension containing 500 parts of test compound per million parts of final formulation. Potted Tendergreen bean plants of standard height and age were placed on a revolving turntable and sprayed with 100-110 milliliters of test compound formulation by use of a DeVilbiss spray gun set at 10 psig air pressure. This application, which lasted 25 seconds, was sufficient to wet plants to run-off. As a control, 100-110 milliliters of a water-acetone-emulsifier solution containing no test compound were also sprayed on infested plants. When dry, the paired leaves were separated and each one was placed in a 9 centimeter Petri dish lined with moistened filter paper. Five randomly selected larvae were introduced into each dish and the dishes were closed. The closed dishes were labeled and held at 80°-85° F. for three days. Although the larvae could easily consume the whole leaf within twenty-four hours, no more food was added. Larvae which were unable to move the length of the body, even upon stimulation by prodding, were considered dead. Percent mortality was recorded for various concentration levels.
as §4

[4] = tested on: Mexican bean beetle (Epilachna varivestis, Muls.); test: Mexican Bean Beetle Leaf Spray Test; set-up: key: A: excellent control; B: partial control; C: no control; conditions: 500 ppm leaf spray, fourth instar larvae, three days, mortality rating
Method: as §3
Mexican Bean Beetle Leaf Spray Test
Fourth instar larvae of the Mexican bean beetle (Epilachna varivestis, Muls.), reared on Tendergreen bean plants at a temperature of 80°±5° F. and 50±5 percent relative humidity, were the test insects.
The test compounds were formulated by diluting the stock suspension with water to give a suspension containing 500 parts of test compound per million parts of final formulation. Potted Tendergreen bean plants of standard height and age were placed on a revolving turntable and sprayed with 100-110 milliliters of test compound formulation by use of a DeVilbiss spray gun set at 10 psig air pressure. This application, which lasted 25 seconds, was sufficient to wet plants to run-off. As a control, 100-110 milliliters of a water-acetone-emulsifier solution containing no test compound were also sprayed on infested plants. When dry, the paired leaves were separated and each was placed in a 9 centimeter Petri dish lined with moistened filter paper. Five randomly selected larvae were introduced into each dish, and the dishes were closed. The closed dishes were labeled and held at a temperature of 80°±5° F. for three days. Although the larvae could easily consume the leaf within 24 to 48 hours, no more food was added. Larvae which were unable to move the length of the body, even upon stimulation, were considered dead.
as §4

[5] = tested on: two-spotted mite (Tetranychus urticae Koch); test: Mite Foliage Spray Test; set-up: key: A: excellent control; B: partial control; C: no control; conditions: 500 ppm foliage spray, six days, mortality rating
Method: as §3
Adults and nymphal stages of the two-spotted mite (Tetranychus urticae Koch), reared on Tendergreen bean plants at 80±5 percent relative humidity, were the test organisms. Infested leaves from a stock culture were placed on the primary leaves of two bean plants six to eight inches in height, growing in a two-and-a-half inch clay pot. 150-200 Mites, a sufficient number for testing, transferred from the excised leaves to the fresh plants in a period of twenty four hours. Following the twenty four hour transfer period, the excised leaves were removed from the infested plants. The test compounds were formulated by diluting the stock suspension with water to give a suspension containing 500 parts of test compound per million parts of final formulation. The potted plants (one pot per compound) were placed on a revolving turntable and sprayed with 100-110 milliliters of test compound formulation by use of a DeVilbiss spray gun set at 40 psig. air pressure. This application, which lasted 25 seconds, was sufficient to wet the plants to run-off. As a control, 100-110 milliliters of a water solution containing acetone and emulsifier in the same concentrations as the test compound formulation, but containing no test compound, were also sprayed on infested plants. The sprayed plants were held at 80±5 percent relative humidity for six days, after which a mortality count of motile forms was made. Microscopic examination for motile forms was made on the leaves of the test plants. Any individual which was capable of locomotion upon prodding was considered living.
as §4

C=CCc1ccc(OC(=O)N(C)SN(C)C(=O)Oc2ccc(CC=C)cc2OC)c(OC)c1
C: Pesticidal Activity, House fly [1] | Pesticidal Activity, Aphid [2] | Pesticidal Activity, Southern Armyworm [3] | Pesticidal Activity, Mexican Bean Beetle [4] | Pesticidal Activity, Mite [5]
1: Phytotoxicity, Soybean (Soybean) | Phytotoxicity, Corn (Corn) | Phytotoxicity, Tomato (Tomato) | Phytotoxicity, Cotton (Cotton) | Phytotoxicity, Bean (Bean)
